Assay results as given in patent US20120083522A1, “MODULATION OF INFLAMMATORY RESPONSES BY FACTOR XI” (Isis Pharmaceuitcals, inc., priority 2009, published 2012).

Experiments:
human Factor XI mRNA [1] = assay: Antisense inhibition in HepG2 cells by microwalk gapmers, 8,000 nM, electroporation (Example 14); assay type: cell-based; conditions: HepG2 cells, 8,000 nM
Outline: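 Percent reduction of Factor XI transcript, relative to untreated controls, by real-time PCR with RIBOGREEN normalisation. Readout taken about 24 h after electroporating HepG2 cells with 8,000 nM oligonucleotide. Gapmers are 5-10-5, 5-8-5 or 6-8-6 MOE wings, phosphorothioate backbone.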

[2] = parameters: species or system Sprague-Dawley rats; conditions: rat, in vivo, sc, 20 mg/kg
Experimental: The concentration of the full-length oligonucleotide as well as the total oligonucleotide concentration (including the degraded form) was measured. The method used is a modification of previously published methods (Leeds et al., 1996; Geary et al., 1999) which consist of a phenol-chloroform (liquid-liquid) extraction followed by a solid phase extraction. An internal standard (ISIS 355868, a 27-mer 2′-O-methoxyethyl modified phosphorothioate oligonucleotide, […], designated herein as SEQ ID NO: 270) was added prior to extraction. […] The results are presented in Tables 98 and 99, expressed as μg/g liver or kidney tissue.

human Factor XI mRNA [3] = assay: Antisense inhibition in HepG2 cells by microwalk gapmers, 75 nM, lipofectin (Example 3); assay type: cell-based; conditions: HepG2 cells, 75 nM, oligonucleotides targeted to nucleobases 1275 to 1318 of SEQ ID NO: 1
Outline: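 HepG2 cells (10,000 per well) were transfected with 75 nM gapmer using lipofectin and treated for about 24 h. Factor XI mRNA was quantified by real-time PCR, normalized to RiboGreen total RNA and expressed as percent inhibition versus untreated controls.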

human Factor XI mRNA [4] = assay: Dose-dependent inhibition and IC50 in HepG2 cells, electroporation (Example 15); assay type: cell-based
Experimental: Cells were plated at a density of 20,000 cells per well and transfected using electroporation with 123.46 nM, 370.37 nM, 1,111.11 nM, 3,333.33 nM and 10,000 nM concentrations of antisense oligonucleotide, as specified in Table 52. After a treatment period of approximately 16 hours, RNA was isolated from the cells and Factor XI mRNA levels were measured by quantitative real-time PCR. Human Factor XI primer probe set RTS 2966 was used to measure mRNA levels. Factor XI mRNA levels were adjusted according to total RNA content, as measured by RIBOGREEN. Results are presented as percent inhibition of Factor XI, relative to untreated control cells.

Substance | Percent inhibition of human Factor XI mRNA levels (human Factor XI mRNA [1]) [%] | Half-life in the liver and kidney [2] [days] | % inhibition of human Factor XI mRNA levels (human Factor XI mRNA [3]) [%] | percent inhibition of Factor XI mRNA (human Factor XI mRNA [4]; electroporation, 123.47 nM) [%] | percent inhibition of Factor XI mRNA (human Factor XI mRNA [4]; electroporation, 370.37 nM) [%] | percent inhibition of Factor XI mRNA (human Factor XI mRNA [4]; electroporation, 1,111.11 nM) [%] | percent inhibition of Factor XI mRNA (human Factor XI mRNA [4]; electroporation, 3,333.33 nM) [%] | percent inhibition of Factor XI mRNA (human Factor XI mRNA [4]; electroporation, 10,000.0 nM) [%]
416848 (antisense CACAGTTTCTGGCAGGCCTC; 5-10-5 gapmer, wing sugar chemistry not given here, further chemistry not given here) [compound 416848] | 87 | 24 | 86 |  |  |  |  | 
416851 (antisense GTGCACAGTTTCTGGCAGGC; 5-10-5 gapmer, wing sugar chemistry not given here, further chemistry not given here) [compound 416851] | 89 | 24 | 88 | 13 | 35 | 36 | 64 | 72
416852 (antisense TGGTGCACAGTTTCTGGCAG; 5-10-5 gapmer, wing sugar chemistry not given here, further chemistry not given here) [compound 416852] | 87 | 28 | 84 |  |  |  |  | 
416859 (antisense GACGGCATTGGTGCACAGTT; 5-10-5 gapmer, wing sugar chemistry not given here, further chemistry not given here) [compound 416859] | 85 | 19 | 90 |  |  |  |  | 
416860 (antisense CGGACGGCATTGGTGCACAG; 5-10-5 gapmer, wing sugar chemistry not given here, further chemistry not given here) [compound 416860] | 89 | 21 | 88 | 0 | 28 | 39 | 41 | 40
416861 (antisense GCGGACGGCATTGGTGCACA; 5-10-5 gapmer, wing sugar chemistry not given here, further chemistry not given here) [compound 416861] | 90 | 25 | 92 | 0 | 15 | 27 | 66 | 80
416863 (antisense CAGCGGACGGCATTGGTGCA; 5-10-5 gapmer, wing sugar chemistry not given here, further chemistry not given here) [compound 416863] | 86 | 20 | 83 |  |  |  |  | 
416866 (antisense CTGGCAGCGGACGGCATTGG; 5-10-5 gapmer, wing sugar chemistry not given here, further chemistry not given here) [compound 416866] | 84 | 16 | 88 |  |  |  |  | 
416867 (antisense ACTGGCAGCGGACGGCATTG; 5-10-5 gapmer, wing sugar chemistry not given here, further chemistry not given here) [compound 416867] | 85 | 19 | 83 |  |  |  |  | 
